The subject of one test is MOLT-4. As to the kind of experiment: Cell viability assay (tetrazolium-based MTS) in MOLT4 cells. Conditions: Homo sapiens, MOLT-4, MOLT4 acute lymphoblastic leukemia cells, 48 h incubation. As to the method: Cancer cells from acute lymphoblastic leukemia (MOLT4) were incubated with increasing concentrations of compounds of Examples 1-9 for 48 h. Cell viability was measured by tetrazolium-based MTS assay. 5×10^4 to 1×10^5 suspension cells or 3×10^3 to 5×10^3 adherent cells were seeded and treated in 96-well plates for 48 h. The EC50 values of individual agents were calculated with GraphPad Prism.
As usually defined, the EC50 is the concentration at which the effect is half-maximal. `Cc1ncsc1-c1ccc([C@H](C)NC(=O)[C@@H]2C[C@@H](O)CN2C(=O)[C@@H](NC(=O)CCCCCCCS(=O)(=O)NC(=O)c2nc(N3CCc4cccc(C(=O)Nc5nc6ccccc6s5)c4C3)ccc2-c2cnn(CC34CC5CC(CC(C5)C3)C4)c2C)C(C)(C)C)cc1` [degrader #13, 2-(5-(1-(adamantan-1-ylmethyl)-5-methyl-1H-pyrazol-4-yl)-6-(((8-(((S)-1-((2S,4R)-4-hydroxy-2-(((S)-1-(4-(4-methylthiazol-5-yl)phenyl)ethyl)carbamoyl)pyrrolidin-1-yl)-3,3-dimethyl-1-oxobutan-2-yl)amino)-8-oxooctyl)sulfonyl)carbamoyl)pyridin-2-yl)-N-(benzo[d]thiazol-2-yl)-1,2,3,4-tetrahydroisoquinoline-8-carboxamide] returned an EC50 of under 10 nM.

Turning to `Cc1ncsc1-c1ccc([C@H](C)NC(=O)[C@@H]2C[C@@H](O)CN2C(=O)[C@@H](NC(=O)CCCCCCCCCCS(=O)(=O)NC(=O)c2nc(N3CCc4cccc(C(=O)Nc5nc6ccccc6s5)c4C3)ccc2-c2cnn(CC34CC5CC(CC(C5)C3)C4)c2C)C(C)(C)C)cc1` [degrader #16, 2-(5-(1-(adamantan-1-ylmethyl)-5-methyl-1H-pyrazol-4-yl)-6-(((11-(((S)-1-((2S,4R)-4-hydroxy-2-(((S)-1-(4-(4-methylthiazol-5-yl)phenyl)ethyl)carbamoyl)pyrrolidin-1-yl)-3,3-dimethyl-1-oxobutan-2-yl)amino)-11-oxoundecyl)sulfonyl)carbamoyl)pyridin-2-yl)-N-(benzo[d]thiazol-2-yl)-1,2,3,4-tetrahydroisoquinoline-8-carboxamide], the concentration for a half-maximal effect (EC50) lay within 10 to 100 nM.

Compound `Cc1c(-c2ccc(N3CCc4cccc(C(=O)Nc5nc6ccccc6s5)c4C3)nc2C(=O)NCCCCNc2cccc3c2C(=O)N(C2CCC(=O)NC2=O)C3=O)cnn1CC12CC3CC(CC(C3)C1)C2` (centres unmarked) [degrader #3, 2-(5-(1-(adamantan-1-ylmethyl)-5-methyl-1H-pyrazol-4-yl)-6-((4-((2-(2,6-dioxopiperidin-3-yl)-1,3-dioxoisoindolin-4-yl)amino)butyl)carbamoyl)pyridin-2-yl)-N-(benzo[d]thiazol-2-yl)-1,2,3,4-tetrahydroisoquinoline-8-carboxamide] had an EC50 of 100 to 1000 nM.

For `Cc1ncsc1-c1ccc([C@H](C)NC(=O)[C@@H]2C[C@@H](O)CN2C(=O)[C@@H](NC(=O)CCCCCS(=O)(=O)NC(=O)c2nc(N3CCc4cccc(C(=O)Nc5nc6ccccc6s5)c4C3)ccc2-c2cnn(CC34CC5CC(CC(C5)C3)C4)c2C)C(C)(C)C)cc1` [degrader #11, 2-(5-(1-(adamantan-1-ylmethyl)-5-methyl-1H-pyrazol-4-yl)-6-(((6-(((S)-1-((2S,4R)-4-hydroxy-2-(((S)-1-(4-(4-methylthiazol-5-yl)phenyl)ethyl)carbamoyl)pyrrolidin-1-yl)-3,3-dimethyl-1-oxobutan-2-yl)amino)-6-oxohexyl)sulfonyl)carbamoyl)pyridin-2-yl)-N-(benzo[d]thiazol-2-yl)-1,2,3,4-tetrahydroisoquinoline-8-carboxamide], the 50% effective concentration (EC50) is under 10 nM.

In turn, `Cc1c(-c2ccc(N3CCc4cccc(C(=O)Nc5nc6ccccc6s5)c4C3)nc2C(=O)NCCCCCCNc2cccc3c2C(=O)N(C2CCC(=O)NC2=O)C3=O)cnn1CC12CC3CC(CC(C3)C1)C2` (centres unmarked) [degrader #4, 2-(5-(1-(adamantan-1-ylmethyl)-5-methyl-1H-pyrazol-4-yl)-6-((6-((2-(2,6-dioxopiperidin-3-yl)-1,3-dioxoisoindolin-4-yl)amino)hexyl)carbamoyl)pyridin-2-yl)-N-(benzo[d]thiazol-2-yl)-1,2,3,4-tetrahydroisoquinoline-8-carboxamide] returned a concentration giving a half-maximal response (EC50) of 100 to 1000 nM.

The test is the same for the next values; noted with them: MOLT4 acute lymphoblastic leukemia cells, 48 h incubation.
Take `Cc1c(-c2ccc(N3CCc4cccc(C(=O)Nc5nc6ccccc6s5)c4C3)nc2C(=O)O)cnn1CC12CC3CC(C1)CC(C(=O)NCCCCCCCCCCCCNc1cccc4c1C(=O)N(C1CCC(=O)NC1=O)C4=O)(C3)C2` (centres unmarked) [degrader #38, 6-(8-(benzo[d]thiazol-2-ylcarbamoyl)-3,4-dihydroisoquinolin-2(1H)-yl)-3-(1-(((1r,3r)-3-((12-((2-(2,6-dioxopiperidin-3-yl)-1,3-dioxoisoindolin-4-yl)amino)dodecyl)carbamoyl)adamantan-1-yl)methyl)-5-methyl-1H-pyrazol-4-yl)picolinic acid]: the EC50 was 10 to 100 nM.

`Cc1ncsc1-c1ccc([C@H](C)NC(=O)[C@@H]2C[C@@H](O)CN2C(=O)[C@@H](NC(=O)CCCCCCCCCCCS(=O)(=O)NC(=O)c2nc(N3CCc4cccc(C(=O)Nc5nc6ccccc6s5)c4C3)ccc2-c2cnn(CC34CC5CC(CC(C5)C3)C4)c2C)C(C)(C)C)cc1` [degrader #17, 2-(5-(1-(adamantan-1-ylymethyl)-5-methyl-1H-pyrazol-4-yl)-6-(((12-(((S)-1-((2S,4R)-4-hydroxy-2-(((S)-1-(4-(4-methylthiazol-5-yl)phenyl)ethyl)carbamoyl)pyrrolidin-1-yl)-3,3-dimethyl-1-oxobutan-2-yl)amino)-12-oxododecyl)sulfonyl)carbamoyl)pyridin-2-yl)-N-(benzo[d]thiazol-2-yl)-1,2,3,4-tetrahydroisoquinoline-8-carboxamide] gave a concentration giving a half-maximal response (EC50) of 10 to 100 nM.

Consider `Cc1c(-c2ccc(N3CCc4cccc(C(=O)Nc5nc6ccccc6s5)c4C3)nc2C(=O)NCCOCCOCCOCCCc2cccc3c2CN(C2CCC(=O)NC2=O)C3=O)cnn1CC12CC3CC(CC(C3)C1)C2` (centres unmarked) [degrader #32], for which the EC50 is under 10 nM.

The compound `Cc1c(-c2ccc(N3CCc4cccc(C(=O)Nc5nc6ccccc6s5)c4C3)nc2C(=O)O)cnn1CC12CC3CC(C1)CC(C(=O)NCCCCNc1cccc4c1C(=O)N(C1CCC(=O)NC1=O)C4=O)(C3)C2` (centres unmarked) [degrader #34, 6-(8-(benzo[d]thiazol-2-ylcarbamoyl)-3,4-dihydroisoquinolin-2(1H)-yl)-3-(1-(((1r,3r)-3-((4-((2-(2,6-dioxopiperidin-3-yl)-1,3-dioxoisoindolin-4-yl)amino)butyl)carbamoyl)adamantan-1-yl)methyl)-5-methyl-1H-pyrazol-4-yl)picolinic acid] showed a concentration for a half-maximal effect (EC50) of 10 to 100 nM.

`Cc1c(-c2ccc(N3CCc4cccc(C(=O)Nc5nc6ccccc6s5)c4C3)nc2C(=O)NCCOCCOCCOCCCc2ccc3c(c2)C(=O)N(C2CCC(=O)NC2=O)C3=O)cnn1CC12CC3CC(CC(C3)C1)C2` (centres unmarked) [degrader #31, 2-(5-(1-(adamantan-1-ylmethyl)-5-methyl-1H-pyrazol-4-yl)-6-((2-(2-(2-(3-(2-(2,6-dioxopiperidin-3-yl)-1,3-dioxoisoindolin-5-yl)propoxy)ethoxy)ethoxy)ethyl)carbamoyl)pyridin-2-yl)-N-(benzo[d]thiazol-2-yl)-1,2,3,4-tetrahydroisociuinoline-8-carboxamide]: the EC50 is under 10 nM.

As to `Cc1c(-c2ccc(N3CCc4cccc(C(=O)Nc5nc6ccccc6s5)c4C3)nc2C(=O)NCCOCCOCCOCC#Cc2cccc3c2CN(C2CCC(=O)NC2=O)C3=O)cnn1CC12CC3CC(CC(C3)C1)C2` (centres unmarked) [degrader #28, 2-(5-(1-(adamantan-1-ylmethyl)-5-methyl-1H-pyrazol-4-yl)-6-((2-(2-(2-((3-(2-(2,6-dioxopiperidin-3-yl)-1-oxoisoindolin-4-yl)prop-2-yn-1-yl)oxy)ethoxy)ethoxy)ethyl)carbamoyl)pyridin-2-yl)-N-(benzo[d]thiazol-2-yl)-1,2,3,4-tetrahydroisoguinoline-8-carboxamide], the EC50 is under 10 nM.
